# Measurements: patent publication US20180000085A1, “USE OF PICOLINAMIDE COMPOUNDS WITH FUNGICIDAL ACTIVITY” (DOW AGROSCIENCES LLC, priority 2014, published 2018)
# Assays:
# Type in all cases: in vivo
# Zymoseptoria tritici = test: Leaf blotch of wheat (SEPTTR) disease control on wheat seedlings; details: low volume application, 125.1 g/H; for SEPTTR 1DP, LV activity at 125.1 g/H (% Control rating): 1 Day Protectant; for SEPTTR 3DC, LV activity at 125.1 g/H (% Control rating): 3 Day Curative
# Puccinia triticina = test: Wheat brown rust (PUCCRT) disease control on wheat seedlings; details: low volume application, 125.1 g/H; for PUCCRT 1DP, LV activity at 125.1 g/H (% Control rating): 1 Day Protectant; for PUCCRT 3DC, LV activity at 125.1 g/H (% Control rating): 3 Day Curative
# Phakopsora pachyrhizi = test: Asian soybean rust (PHAKPA) disease control; set-up: key: A: > 80; B: ≤ 80; C: Not Tested; D: No Activity Observed in the Reported Assay; details: 25 ppm; for PHAKPA disease control, 1DP: 1 Day Protectant; for PHAKPA disease control, 3DC: 3 Day Curative
smiles,measurement,setting,value
CCC(CC)[C@@H](Oc1ccccc1Cl)[C@H](C)OC(=O)[C@H](C)NC(=O)c1nccc(OC)c1OC(C)=O [Cmpd 604],"SEPTTR 1DP, LV activity at 125.1 g/H (% Control rating)",Zymoseptoria tritici,B (≤ 80)
same,"SEPTTR 3DC, LV activity at 125.1 g/H (% Control rating)",Zymoseptoria tritici,A (> 80)
same,"PUCCRT 1DP, LV activity at 125.1 g/H (% Control rating)",Puccinia triticina,A (> 80)
same,"PUCCRT 3DC, LV activity at 125.1 g/H (% Control rating)",Puccinia triticina,A (> 80)
same,"PHAKPA disease control, 1DP",Phakopsora pachyrhizi,B (≤ 80)
same,"PHAKPA disease control, 3DC",Phakopsora pachyrhizi,B (≤ 80)
COc1ccnc(C(=O)N[C@@H](C)C(=O)O[C@@H](C)[C@H](Oc2cccc(F)c2)C(C)C)c1OCOC(C)=O [Cmpd 614],"SEPTTR 1DP, LV activity at 125.1 g/H (% Control rating)",Zymoseptoria tritici,B (≤ 80)
same,"SEPTTR 3DC, LV activity at 125.1 g/H (% Control rating)",Zymoseptoria tritici,A (> 80)
same,"PUCCRT 1DP, LV activity at 125.1 g/H (% Control rating)",Puccinia triticina,A (> 80)
same,"PUCCRT 3DC, LV activity at 125.1 g/H (% Control rating)",Puccinia triticina,A (> 80)
same,"PHAKPA disease control, 1DP",Phakopsora pachyrhizi,A (> 80)
same,"PHAKPA disease control, 3DC",Phakopsora pachyrhizi,A (> 80)
COc1ccnc(C(=O)N[C@@H](C)C(=O)O[C@@H](C)[C@H](Oc2ccc(F)cc2)C(C)C)c1OCOC(C)=O [Cmpd 615],"SEPTTR 1DP, LV activity at 125.1 g/H (% Control rating)",Zymoseptoria tritici,A (> 80)
same,"SEPTTR 3DC, LV activity at 125.1 g/H (% Control rating)",Zymoseptoria tritici,A (> 80)
same,"PUCCRT 1DP, LV activity at 125.1 g/H (% Control rating)",Puccinia triticina,A (> 80)
same,"PUCCRT 3DC, LV activity at 125.1 g/H (% Control rating)",Puccinia triticina,A (> 80)
same,"PHAKPA disease control, 1DP",Phakopsora pachyrhizi,A (> 80)
same,"PHAKPA disease control, 3DC",Phakopsora pachyrhizi,B (≤ 80)
COc1ccnc(C(=O)N[C@@H](C)C(=O)O[C@@H](C)[C@H](Oc2cc(F)ccc2F)C(C)C)c1OCOC(C)=O [Cmpd 616],"SEPTTR 1DP, LV activity at 125.1 g/H (% Control rating)",Zymoseptoria tritici,B (≤ 80)
same,"SEPTTR 3DC, LV activity at 125.1 g/H (% Control rating)",Zymoseptoria tritici,A (> 80)
same,"PUCCRT 1DP, LV activity at 125.1 g/H (% Control rating)",Puccinia triticina,A (> 80)
same,"PUCCRT 3DC, LV activity at 125.1 g/H (% Control rating)",Puccinia triticina,A (> 80)
same,"PHAKPA disease control, 1DP",Phakopsora pachyrhizi,A (> 80)
same,"PHAKPA disease control, 3DC",Phakopsora pachyrhizi,A (> 80)
COc1ccnc(C(=O)N[C@@H](C)C(=O)O[C@@H](C)[C@H](Oc2cccc3ccccc23)C(C)C)c1OCOC(C)=O [Cmpd 621],"SEPTTR 1DP, LV activity at 125.1 g/H (% Control rating)",Zymoseptoria tritici,B (≤ 80)
same,"SEPTTR 3DC, LV activity at 125.1 g/H (% Control rating)",Zymoseptoria tritici,A (> 80)
same,"PUCCRT 1DP, LV activity at 125.1 g/H (% Control rating)",Puccinia triticina,A (> 80)
same,"PUCCRT 3DC, LV activity at 125.1 g/H (% Control rating)",Puccinia triticina,A (> 80)
same,"PHAKPA disease control, 1DP",Phakopsora pachyrhizi,A (> 80)
same,"PHAKPA disease control, 3DC",Phakopsora pachyrhizi,D
COc1ccnc(C(=O)N[C@@H](C)C(=O)O[C@@H](C)[C@H](Oc2ccc(F)cc2)C(C)C)c1OC(C)=O [Cmpd 626],"SEPTTR 1DP, LV activity at 125.1 g/H (% Control rating)",Zymoseptoria tritici,A (> 80)
same,"SEPTTR 3DC, LV activity at 125.1 g/H (% Control rating)",Zymoseptoria tritici,A (> 80)
same,"PUCCRT 1DP, LV activity at 125.1 g/H (% Control rating)",Puccinia triticina,A (> 80)
same,"PUCCRT 3DC, LV activity at 125.1 g/H (% Control rating)",Puccinia triticina,A (> 80)
same,"PHAKPA disease control, 1DP",Phakopsora pachyrhizi,A (> 80)
same,"PHAKPA disease control, 3DC",Phakopsora pachyrhizi,B (≤ 80)
COc1ccnc(C(=O)N[C@@H](C)C(=O)O[C@@H](C)[C@H](Oc2cc(F)ccc2F)C(C)C)c1OC(C)=O [Cmpd 627],"SEPTTR 1DP, LV activity at 125.1 g/H (% Control rating)",Zymoseptoria tritici,B (≤ 80)
same,"SEPTTR 3DC, LV activity at 125.1 g/H (% Control rating)",Zymoseptoria tritici,A (> 80)
same,"PUCCRT 1DP, LV activity at 125.1 g/H (% Control rating)",Puccinia triticina,A (> 80)
same,"PUCCRT 3DC, LV activity at 125.1 g/H (% Control rating)",Puccinia triticina,A (> 80)
same,"PHAKPA disease control, 1DP",Phakopsora pachyrhizi,B (≤ 80)
same,"PHAKPA disease control, 3DC",Phakopsora pachyrhizi,B (≤ 80)
COc1ccnc(C(=O)N[C@@H](C)C(=O)O[C@@H](C)[C@H](Oc2ccccc2Cl)c2ccccc2)c1OCOC(C)=O [Cmpd 639],"SEPTTR 1DP, LV activity at 125.1 g/H (% Control rating)",Zymoseptoria tritici,B (≤ 80)
same,"SEPTTR 3DC, LV activity at 125.1 g/H (% Control rating)",Zymoseptoria tritici,A (> 80)
same,"PUCCRT 1DP, LV activity at 125.1 g/H (% Control rating)",Puccinia triticina,A (> 80)
same,"PUCCRT 3DC, LV activity at 125.1 g/H (% Control rating)",Puccinia triticina,A (> 80)
same,"PHAKPA disease control, 1DP",Phakopsora pachyrhizi,A (> 80)
same,"PHAKPA disease control, 3DC",Phakopsora pachyrhizi,B (≤ 80)
CCC(CC)[C@H](Oc1cccc(F)c1)[C@H](C)OC(=O)[C@H](C)NC(=O)c1nccc(OC)c1OCOC(C)=O [Cmpd 668],"SEPTTR 1DP disease control rating, LV activity at 125.1 g/H",Zymoseptoria tritici; 1 day protectant,A (> 80)
same,"SEPTTR 3DC disease control rating, LV activity at 125.1 g/H",Zymoseptoria tritici; 3 day curative,A (> 80)
same,"PUCCRT 1DP disease control rating, LV activity at 125.1 g/H",Puccinia triticina; 1 day protectant,A (> 80)
same,"PUCCRT 3DC disease control rating, LV activity at 125.1 g/H",Puccinia triticina; 3 day curative,A (> 80)
same,"PHAKPA disease control, 1DP",Phakopsora pachyrhizi,B (≤ 80)
same,"PHAKPA disease control, 3DC",Phakopsora pachyrhizi,B (≤ 80)
